For 1 compound, IC50 results are on record in article PMC3050433, “The effects of maribavir on the autophosphorylation of ganciclovir resistant mutants of the cytomegalovirus UL97 protein” (Herpesviridae, 2010).

Structures are written as SMILES.

The assay deals with T1, UL97 V665I (Human cytomegalovirus, UniProt Q68101, V665I).
T1 construct: PCR reaction to generate the full length UL97; honey bee melittin secretion signal (N); made in house; host or cells: Sf21 insect cells, recombinant baculovirus (pMelBac C)
T1 sequence (Q68101 1-707 V665I): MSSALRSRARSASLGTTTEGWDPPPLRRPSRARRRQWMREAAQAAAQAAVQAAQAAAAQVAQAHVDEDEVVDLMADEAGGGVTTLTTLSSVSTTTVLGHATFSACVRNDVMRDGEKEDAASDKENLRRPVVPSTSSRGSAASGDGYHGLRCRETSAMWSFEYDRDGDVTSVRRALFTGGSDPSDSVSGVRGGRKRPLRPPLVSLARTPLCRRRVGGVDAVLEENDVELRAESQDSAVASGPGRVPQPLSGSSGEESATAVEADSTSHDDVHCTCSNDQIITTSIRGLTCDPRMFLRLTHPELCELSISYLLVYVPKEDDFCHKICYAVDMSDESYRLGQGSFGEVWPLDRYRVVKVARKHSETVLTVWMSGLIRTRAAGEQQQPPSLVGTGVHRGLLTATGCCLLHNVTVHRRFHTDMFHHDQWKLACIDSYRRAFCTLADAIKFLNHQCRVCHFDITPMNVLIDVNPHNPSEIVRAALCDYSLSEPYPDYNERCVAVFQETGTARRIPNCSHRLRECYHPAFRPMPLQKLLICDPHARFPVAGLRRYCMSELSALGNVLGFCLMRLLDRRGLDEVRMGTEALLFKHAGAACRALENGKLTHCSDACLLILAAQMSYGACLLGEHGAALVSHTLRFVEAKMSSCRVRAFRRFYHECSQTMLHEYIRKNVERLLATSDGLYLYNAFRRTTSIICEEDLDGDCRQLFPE
Nature of the assay: UL97 autophosphorylation protein kinase assay, V665I. It is filed as biochemical. To be noted: V665I mutant. As for the experimental part: Analysis of the autophosphorylation of wild type and mutant UL97 protein species was performed by a standard protein kinase assay as previously described (46). Briefly, purified protein was added to 2× protein kinase buffer (100 mM Tris HCl, pH9.0, 20 mM MgCl2, 10 μM ATP, 4 mM DTT, 2 M NaCl) and 370 KBq [γ^32P] ATP (Amersham), made up to 20 μl with SDW and incubated at 37°C. The reactions were terminated by the addition of 2× SDS sample buffer followed by boiling for 3 minutes. The amount of radiolabelled phosphate incorporated by autophosphorylation was analysed by SDS-PAGE and measured using the Biorad Mulitanalyst. The protein kinase assays were initially performed for 2 to 60 minutes to determine the maximum rate of phosphate incorporation, all assays were then performed at the maximum rate which equated to 5 minutes.
Enzyme kinetic analysis was performed on the purified wild type and mutant UL97 protein species as above using increasing concentrations of ATP (2 μM to 20 μM). The amount of incorporated radiolabelled phosphate was plotted against the concentration of ATP in a Lineweaver Burke plot to determine the Km for ATP for each UL97 species. […]

Consider `CC(C)Nc1nc2cc(Cl)c(Cl)cc2n1[C@H]1O[C@@H](CO)[C@H](O)[C@@H]1O` [maribavir, 5,6-dichloro-2-(isopropylamino)-1-beta-L-ribofuranosyl-1H-benzimidazole], for which the IC50 (usually the concentration at which inhibition is half-maximal) is 30 nM.
